Test results from US9850383B2, “Uncharged pyrenyloxy sulfonamide dyes for conjugation with biomolecules” (Gene Tools, LLC, priority 2016, dated 2017).

What was measured:
[1] = Excitation and emission spectrum (fluorescence); format: physicochemical
From the text: FIG. 1. Excitation and emission spectrum of pyrenyloxy sulfonamide (Compound 4a)
FIG. 2. Excitation and emission spectrum of Cascade Blue
FIG. 3. Excitation and emission spectrum of fluorescein
(§1) The core structure of the improved, reactive, hydrophilic, uncharged fluorophores is a new class of pyrenyloxy sulfonamide compounds. […] The novelty of this invention involves the substantial improvement of the properties of Cascade Blue, a currently available blue-fluorescent dye. The high polarity of anionic sulfonate of Cascade Blue results in the membrane-impermeability which can only be used extracellularly, a major disadvantage for many desirable applications. […] And the high aqueous solubility of the pyrenyloxy sulfonamide is useful for biological and physiological application, allowing staining the cell surface which is negatively charged, and even more useful to enter the cell for intracellular detection. In addition, the Stokes shift of Cascade Blue is undesirably small (ca. 20 nm, FIG. 2). […] The Stokes shift of the compounds of this invention is a much more practical 44 nm (FIG. 1), a significant improvement in its utility as a tracer for biological applications. The molar extinction coefficient of the structure of the invention is slightly higher (3.1×10^4 cm^−1 M^−1 at λ423 nm) than that of Cascade Blue (2.9×10^4 cm^−1 M^−1 at λ410 nm), an additional advantage for increased sensitivity. Photostability of the dye (compound 6 in FIG. 6) was tested under the light exposure. The scans were overlaid up to 60 mins with 15 min interval. […] This resistance to photobleaching greatly enhances the utility of the dye for quantitative measurements and permits extended illumination time.
Obvious is the spectra region shorter than 500 nm which is particularly valuable to get away from interference where green fluorescent protein is present or, to carry out the applications requiring multiple dyes such as flow cytometry, DNA sequencing and multiparameter microscopy. […] This special feature increases the sensitivity of the fluorescence techniques where the emission signal can be maximized against the low background.

[2] = Molar extinction coefficient; format: physicochemical; conditions: at λ410 nm
From the text: as §1, with “sensitivity.” for “sensitivity. Photostability of the dye (compound 6 in FIG. 6) was tested under the light exposure. The scans were overlaid up to 60 mins with 15 min interval.”

In the case of Cascade Blue [reference compound], the Stokes shift [1] is reported as “ca. 20 nm” and the molar extinction coefficient [2] is reported as 29000 cm⁻¹ M⁻¹.

With `O=S(=O)(c1cc(OCCCO)c2ccc3c(S(=O)(=O)N4CCOCC4)cc(S(=O)(=O)N4CCOCC4)c4ccc1c2c34)N1CCOCC1` [Compound 4a, 8-(3′-hydroxypropyloxy)pyren-tris(morpholino)-1,3,6-trisulfonamide] the Stokes shift [1] was “ca. 44 nm”, the peak of emission [1] was 465 nm and the peak of excitation [1] was 421 nm.
